Source: patent publication US8198446B2, “Crystalline micropowder particles” (Toray Industries, Inc., priority 2007, dated 2012)

Key:
[1] = Storage stability (2): total amount of related substances by HPLC, 60° C./75% RH opened; format: physicochemical
Procedure: For comparison of storage stability, the ground pharmaceutical active substance of Comparative Example 4 (grinding for 3 min), Comparative Example 5 (grinding for 6 min) and Comparative Example 6 (grinding for 7 min), all of which were ground with Table Ball Mill (model V-2M: manufactured by Irie Shokai), were left under the storage condition of 60° C./75% RH opened, and the total amount of related substances was analyzed by HPLC 0.5 and 2 months after the start of the storage (Table 7).

[2] = Measurement of particle diameter distribution (laser diffraction, dry measurement, Mastersizer 2000); format: physicochemical; details: for Particle Diameter Distribution D50 / Particle Diameter Distribution D90: dry measurement, volume basis
Procedure: In the present invention, D50 and D90 are indices for defining particle diameter distribution. Particle diameter distribution is usually called particle size distribution. Particles are divided into groups along with their size with appropriate intervals, and weight (volume) or particle number of the particles belonging to each group is measured to obtain the particle number (frequency) of each group. Taking the particle number (frequency) along the ordinate and taking the particle diameter along the abscissa, a particle diameter distribution is shown as a histogram, frequency curve, cumulative curve or the like. In the present invention, frequency was calculated based on volume. In the particle diameter distribution obtained in such a manner, D50 means the particle diameter at the point where the volume which is cumulatively measured from smaller particles reaches 50%, that is, the point where the cumulative frequency of the volume distribution reaches 50%. D90 means the particle diameter at the point where the volume which is cumulatively measured from smaller particles reaches 90%, that is, the point where the cumulative frequency of the volume distribution reaches 90%. Cumulative frequency (%) of particles which have a smaller diameter than a specified particle diameter can also be calculated from such a distribution chart.
Measurement of the particle diameter distribution of the crystalline finely-ground particles according to the present invention may be carried out with a commercially available apparatus using laser diffraction/scattering based on Mie Theory. For example, the measurement is carried out using a commercially available apparatus such as Malvern (registered trademark) Mastersizer Laser Diffraction Analyzer (Malvern Instruments Ltd). This analyzer irradiates He—Ne laser beam and blue light-emitting diode on particles to obtain a light scattering pattern which occurs on a detector by the irradiation, and then analyzes the light scattering pattern according to Mie Theory to determine the particle diameter distribution. […] An example of the measurement condition is as follows, which was used in Evaluation 1 of the present invention.
• Apparatus: Laser diffraction-based particle size distribution analyzer Mastersizer 2000 (Malvern) • Dry measurement unit: Scircco 2000 • Refractive Index of Samples: Real part; 1.810, Imaginary part; 0 • Time for Sample Measurement: 1 second • Time for Background Measurement: 5 seconds • Pressure: 2.0 bar • Feed Rate: 40% • Analysis Model: Single narrow mode • Calculation Sensitivity Enhanced • Particle Shape Irregular • Analysis Range: 0.020 to 2000 μm • Basis of Size Distribution Measurement: Volume
The particle diameter distribution of the subject compound was measured by dry measurement using a particle size distribution analyzer (Mastersizer 2000, manufactured by Malvern). D50 and D90 were calculated as an index of the particle diameter distribution.

[3] = Check of crystalline state and measurement of degree of crystallinity by powder X-ray diffraction; format: physicochemical; details: powder X-ray diffraction, Xc=(Sc/(Sc+Sa))×100
Procedure: The degree of crystallinity of the crystalline finely-ground particles according to the present invention is calculated from the integrated intensity ratio of crystalline peaks and amorphous halo which are extracted from an X-ray diffraction pattern obtained by powder X-ray diffraction measurement.
The powder X-ray diffraction measurement may be carried out by using, for example, a powder X-ray diffractometer (2200/RINT Ultima+PC) manufactured by Rigaku as described in Evaluation 2 of the present invention. In preparation of a measurement sample, 100 mg of a sample material is filled in a glass sample plate (0.2 mm depth) in non-destructive condition, and the surface of the sample material is leveled out using a glass plate to obtain a measurement sample. An example of the measurement condition is as follows, which was used in the present invention.
The degree of crystallinity may be calculated by a known analysis method using diffraction patterns of a sample material and sample plate alone (without a sample material) and a difference pattern thereof. For example, using a powder X-ray diffraction pattern analysis software JADE5.0 produced by MDI, which is a commercially available analysis software, a degree of crystallinity may be calculated as follows.
• (1) A difference pattern of the diffraction patterns of a sample material and sample plate alone is smoothed (Savitzky-Goray filter: 19 points). • (2) For a display area of the difference pattern, the x-axis: diffraction angle (2θ) is set between 2 deg and 90 deg, and the y-axis: diffraction intensity (Counts) is set between 0 and 500. • (3) Points are set at diffraction angles of […], 65 and 90 deg, respectively, and a straight line parallel to the x-axis is drawn such that the line is contact with the difference diffraction pattern at a range of 65 deg to 90 deg. The area below the line is determined as a background. • (4) The background is subtracted. • (5) An integrated intensity at a range of 4 deg to 60 deg is calculated (which corresponds to a sum of the integrated intensity of crystalline peaks and an amorphous halo: Sc+Sa) • (6) Points are set at diffraction angles of 2, 7, 18, 26, 30, 35, 59, 65 and 90 deg, respectively. At 2, 65 and 90 deg, the diffraction intensity is set as 0, and at 7, 18, 26, 30, 35 and 59 deg, an approximation by a cubic spline is made such that the approximation formula is in contact with the difference pattern obtained after the subtraction of the background, thereby estimating an amorphous halo. • (7) The amorphous halo is subtracted. • (8) The integrated intensity at a range of 4 deg to 60 deg is calculated (which corresponds to the integrated intensity of the crystalline peaks: Sc). • (9) A degree of crystallinity is calculated according to the following equation. Xc=(Sc/(Sc+Sa))×100 Equation • Xc: Degree of crystallinity (%) • Sc: Integrated intensity of the crystalline peaks • Sa: Integrated intensity of the amorphous halo
For check of the crystalline state and measurement of the degree of crystallinity, powder X-ray diffraction measurement was carried out using a powder X-ray diffraction analyzer (2200/RINT Ultima+PC) manufactured by Rigaku.

[4] = Plasma concentration of drugs when administered to dogs; format: in vivo; details: oral 10 mg/kg, 3 male beagle dogs
Procedure: The pharmaceutical active substances with a different particle diameter distribution (Example 2 and Comparative Example 2) were orally administered (10 mg/kg) to 3 male beagle dogs, and blood samples were collected at each time points to measure the drug concentration in plasma.

[5] = 60° C./75% RH opened, 0.5-Month Later
[6] = 60° C./75% RH opened, 2-Month Later

SMILES	Total Amount of Related Substances [1, 5]	Total Amount of Related Substances [1, 6]	Total Amount of Related Substances ([1]; At Start of Storage)	Particle Diameter Distribution D50 [2]	Particle Diameter Distribution D90 [2]	Degree of Crystallinity [3]	Cumulative Frequency of Volume Distribution Which Is Occupied by Particles with Volume-Based Particle Diameter 15 (μm) or Less [2]	Drug Plasma Concentration AUC 0-24 h, Average (Standard Deviation) [4]	Drug Plasma Concentration C max, Average (Standard Deviation) [4]
O=C1c2ccccc2C(=O)N1[C@@H]1CC[C@@]2(O)[C@H]3Cc4ccc(O)c5c4[C@@]2(CCN3CC2CC2)[C@H]1O5 [Comparative Example 5, N-(17-cyclopropylmethyl-4,5α-epoxy-3,14-dihydroxy-morphinan-6β-yl)-phthalimide]	0.61%	1.07%	0.24%	19.2 μm	246 μm	71%	–	–	–
O=C1c2ccccc2C(=O)N1[C@@H]1CC[C@@]2(O)[C@H]3Cc4ccc(O)c5c4[C@@]2(CCN3CC2CC2)[C@H]1O5 [Comparative Example 4, N-(17-cyclopropylmethyl-4,5α-epoxy-3,14-dihydroxy-morphinan-6β-yl)-phthalimide]	0.38%	–	0.23%	17.1 μm	168 μm	82%	–	–	–
O=C1c2ccccc2C(=O)N1[C@@H]1CC[C@@]2(O)[C@H]3Cc4ccc(O)c5c4[C@@]2(CCN3CC2CC2)[C@H]1O5 [Comparative Example 2, N-(17-Cyclopropylmethyl-4,5α-epoxy-3,14-dihydroxy-morphinan-6β-yl)-phthalimide]	–	–	–	64.0 μm	173 μm	93%	9.4%	44.5 (25.4) ng · hr/mL	4.8 (1.8) ng/mL
O=C1c2ccccc2C(=O)N1[C@@H]1CC[C@@]2(O)[C@H]3Cc4ccc(O)c5c4[C@@]2(CCN3CC2CC2)[C@H]1O5 [Comparative Example 6, N-(17-cyclopropylmethyl-4,5α-epoxy-3,14-dihydroxy-morphinan-6β-yl)-phthalimide]	0.67%	1.27%	0.24%	23.0 μm	436 μm	61%	–	–	–
O=C1c2ccccc2C(=O)N1[C@@H]1CC[C@@]2(O)[C@H]3Cc4ccc(O)c5c4[C@@]2(CCN3CC2CC2)[C@H]1O5 [Example 2, N-(17-cyclopropylmethyl-4,5α-epoxy-3,14-dihydroxy-morphinan-6β-yl)-phthalimide]	–	–	–	6.23 μm	12.4 μm	89%	96.3%	180.3 (40.9) ng · hr/mL	18.4 (7.2) ng/mL
